Among the data in patent publication US20090076012A1, “Modulation of pathogenicity” (priority 2002, published 2009) are IC50 values, retold here.

The subject of the test is bioluminescent sensor strain Escherichia coli MT102 (pSB403). Kind of test: Biosensor assay: quorum sensing inhibition, bioluminescence of the sensor strain. The class given is cell-based. The note with it: 3oxo-C6-HSL 100 nM, bioluminescence after 4 hours at 30° C. As for the experimental part: Quorum sensing inhibition of the compounds was investigated with the aid of the bioluminescent sensor strain Escherichia coli MT102 (pSB403) (Winson et al., FEMS Microbiol. Lett. 163:185-92, 1998). Plasmid pSB403 contains the Photobacterium fischeri luxR gene together with the […] promoter region as a transcriptional fusion to the bioluminescence genes luxCDABE of Photorhabdus luminescence.
Inhibitory studies were conducted in a microtitre dish assay as follows: the E. coli sensor strain grown over night in LB medium (Sambrook et al., Molecular Cloning: A Laboratory Manual. 2nd Edn. Cold Spring Harbor Laboratory, New York, 1989) was diluted 1:4 and grown for another 1 hour at 30° C. After addition of 3oxo-C6-HSL (final concentration 100 nM) 100 μl of an exponential culture suspension were filled in the wells of a FluoroNunc Polysorp microtitre dish. The test compounds were added to the culture in different concentrations and bioluminescence was measured after 4 hours of incubation at 30° C. with a Lamda Fluoro 320 Plus reader (Bio-Tek Instruments). Inhibitor-mediated reduction of light emission was correlated with the value obtained without addition of the test compounds. IC50 values (concentration of inhibitor required for 50% inhibition of the signal compared to the signal without inhibitor) were determined by using a fitting function after drawing a graph of the activities of eight different inhibitor concentrations.

For the compound `CCCCCCC(=O)NNC(=O)c1scc(C)c1Cl` [Compound 81, 3-Chloro-4-methyl-thiophene-Z-carboxylic acid N′-heptanoyl-hydrazide], for the setting “Escherichia coli, 4 h”, the concentration for half-maximal inhibition (IC50) – broadly, the concentration needed to halve the response being measured – is 1 to 50 µM.

As for `CCCCCCCCCCCC(=O)NNC(=O)c1cccs1` [Compound 86, Thiophene-2-carboxylic acid N′-dodecanoyl-hydrazide], the IC50 (Escherichia coli, 4 h) was in the range of 1 to 50 µM.

For the compound `CCCCCCCCCC(=O)CC(=O)Nc1ccon1` [Compound 131, 3-Oxo-dodecanoic acid isoxazol-3-ylamide], the IC50 (Escherichia coli, 4 h) was greater than 100 µM.

The compound `O=C(NNC(=O)c1sccc1Cl)c1sccc1Cl` [Compound 49, 3-Chloro-thiophene-2-carboxylic acid N′-(3-chloro-thiophene-2-carbonyl)-hydrazide] yielded a 50% inhibitory concentration (IC50) (Escherichia coli, 4 h) of 50 to 100 µM.

`CCCCCCC(=O)NNC(=O)c1cccs1` [Compound 79, Thiophene-2-carboxylic acid N′-heptanoyl-hydrazide]: the 50% inhibitory concentration (IC50) (Escherichia coli, 4 h) fell in the range of 1 to 50 µM.

`O=C(CCCCCBr)NNC(=O)c1cccs1` [Compound 78, Thiophene-2-carboxylic acid N′-(6-bromo-hexanoyl)-hydrazide]: where the note is “Escherichia coli, 4 h”, the half-inhibitory concentration (IC50) fell in the range of 1 to 50 µM.

In turn, `CCn1nc(C)c(Br)c1C(=O)NNC(=O)c1ccc(Cl)s1` [Compound 73, 4-Bromo-2-ethyl-5-methyl-2H-pyrazole-3-carboxylic acid N′-(5-chloro-thiophene-2-carbonyl)-hydrazide] registered an IC50 of 1 to 50 µM.

Regarding `Cc1ccc(C(=O)NNC(=O)c2cccs2)s1` [Compound 54, Thiophene-2-carboxylic acid N′-(5-methyl-thiophene-2-carbonyl)-hydrazide], for the setting “Escherichia coli, 4 h”, the IC50 lay within 1 to 50 µM.

`CCCCCCC(=O)Nc1c(Br)cnn1C` [Compound 21] gave a half-maximal inhibitory concentration (IC50) (Escherichia coli, 4 h) of 1 to 50 µM.

For `CCCCCCC(=O)CC(=O)Nc1nc(C)co1` [Compound 134, 3-Oxo-nonanoic acid (4-methyl-oxazol-2-yl)-amide], under “Escherichia coli, 4 h”, the half-inhibitory concentration (IC50) is greater than 100 µM.

Consider `CCCCCCC(=O)CC(=O)Nc1ccc(C(=O)OC)o1` [Compound 138, 5-(3-Oxo-nonanoylamino)-furan-2-carboxylic acid methyl ester], for which, under “Escherichia coli, 4 h”, the IC50 was greater than 100 µM.

In the case of `O=C(Nc1cccc(C(F)(F)F)c1)c1cnc(Cl)nc1C(F)(F)F` [Compound 6, 2-Chloro-4-trifluoromethyl-pyrimidine-5-carboxylic acid (3-trifluoromethyl-phenyl)-amide], the concentration for half-maximal inhibition (IC50) (Escherichia coli, 4 h) is 50 to 100 µM.

For the compound `Cc1ccccc1NC(=O)NNC(=O)c1sc2ccccc2c1Cl` [Compound 112, 1-(3-Chloro-benzo[b]thiophene-2-carbonyl)-4-o-tolyl-semi-carbazide], the IC50 (Escherichia coli, 4 h) is greater than 100 µM.

As for `O=C(NNC(=O)c1sc2ccccc2c1Cl)Nc1cc(Cl)nc(Cl)c1` [Compound 111, 1-(3-Chloro-benzo[b]thiophen-2-carbonyl)-4-(2,6-dichloro-pyridinyl)-semicarbazide], where the note is “Escherichia coli, 4 h”, the IC50 was greater than 100 µM.

The compound `CCCCCCCCCC(=O)CC(=O)Nc1cc(C)nn1C` [Compound 119, 3-Oxo-dodecanoic acid (2,5-dimethyl-2H-pyrazol-3-yl)-amide] returned a half-maximal inhibitory concentration (IC50) (Escherichia coli, 4 h) greater than 100 µM.

As for `O=C(NNC(=O)c1sccc1Br)c1cccs1` [Compound 55, Thiophene-2-carboxylic acid N′-(3-bromo-thiophene-2-carbonyl)-hydrazide], where the note is “Escherichia coli, 4 h”, the half-inhibitory concentration (IC50) fell in the range of 1 to 50 µM.

Consider `Cc1csc(C(=O)NNC(=O)c2ccc(C(F)(F)F)cc2)c1` [Compound 28, 4-Trifluoromethyl-benzoic acid N′-(4-methyl-thiophene-2-carbonyl)-hydrazide], for which the concentration for half-maximal inhibition (IC50) (Escherichia coli, 4 h) is 50 to 100 µM.

Under “Escherichia coli, 4 h”, `O=C(NNC(=O)c1sccc1Cl)c1cccs1` [Compound 51, 3-Chloro-thiophene-2-carboxylic acid N′-(thiophene-2-carbonyl)-hydrazide] displayed an IC50 of 50 to 100 µM.

The compound `O=C(Nc1ccc(Br)cn1)c1cc(Cl)nc(Cl)c1` [Compound 10] had an IC50 (Escherichia coli, 4 h) greater than 100 µM.

For `CCCCCCCC(=O)NNC(=O)c1c(C)noc1C` [Compound 91, 3,5-Dimethyl-isoxazole-4carboxylic acid N′-octanoyl-hydrazide], under “Escherichia coli, 4 h”, the IC50 fell in the range of 1 to 50 µM.

Under “Escherichia coli, 4 h”, `O=C(NNC(=O)c1sccc1Cl)c1cnn(-c2ccccc2)c1C(F)(F)F` [Compound 33, 3-Chloro-thiophene-2-carboxylic acid N′-(1-phenyl-5-trifluoromethyl-1H-pyrazole-4-carbonyl)-hydrazide] registered an IC50 greater than 100 µM.

In turn, `CCCCCCCCCC(=O)CC(=O)Nc1nccs1` [Compound 128, 3-Oxo-dodecanoic acid thiazol-2-ylamide] registered an IC50 (Escherichia coli, 4 h) greater than 100 µM.

As for `Cn1nc(-c2cccs2)cc1NC(=O)CCCCCBr` [Compound 20, 6-Bromo-hexanoic acid (2-methyl-5-thiophen-2-yl-2H-pyrazol-3-yl)-amide], for the setting “Escherichia coli, 4 h”, the concentration for half-maximal inhibition (IC50) was in the range of 1 to 50 µM.

In turn, `CCCC(=O)NNS(=O)(=O)c1ccc(Cl)s1` [Compound 98, Butyric acid N′-(5-chloro-thiophen-2-sulfonyl)-hydrazide] registered an IC50 (Escherichia coli, 4 h) of 50 to 100 µM.

Regarding `O=C(NNC(=O)c1cnn(-c2ccc(Cl)cc2)c1C(F)(F)F)c1cccs1` [Compound 34, Thio-phene-2-carboxylic acid N′-[1-(4-chloro-phenyl)-5-trifluoromethyl-1H-pyrazole-4-carbonyl]-hydrazide], the IC50 (Escherichia coli, 4 h) lay within 50 to 100 µM.

`Cc1nc(C(F)(F)F)ccc1C(=O)NNC(=O)c1cccs1` [Compound 27, 2-Methyl-6-trifluoromethyl-nicotinic acid N′-(thiophene-2-carbonyl)-hydrazide] showed an IC50 (Escherichia coli, 4 h) of 1 to 50 µM.

As for `CCCCCCCC(=O)NNC(=O)c1c(Br)c(C)nn1CC` [Compound 92, 4-Bromo-2-ethyl-5-methyl-2H-pyrazole-3-carboxylic acid N′-octanoyl-hydrazide], the IC50 (Escherichia coli, 4 h) was in the range of 50 to 100 µM.

`Cc1c(C(=O)NNC(=O)c2cccs2)[n+]([O-])c2ccccc2[n+]1[O-]` [Compound 32, N′-(3-Methyl-1,4dioxy-quinoxaline-2-carbonyl)-thiophene-2-carboxylic acid hydrazide] came in with an IC50 (Escherichia coli, 4 h) of 50 to 100 µM.

Turning to `CCCCCCCCCC(=O)CC(=O)Nc1ccnn1CC` [Compound 117, 3-Oxo-dodecanoic acid (2-ethyl-2H-pyrazol-3-yl)-amide], under “Escherichia coli, 4 h”, the IC50 is greater than 100 µM.

Under “Escherichia coli, 4 h”, `CCCCCCCCCC(=O)CC(=O)Nc1cc(C)no1` [Compound 133, 3-Oxo-dodecanoic acid (3-methyl-isoxazol-5-yl)-amide] displayed an IC50 greater than 100 µM.

Compound `CCCCCCC(=O)CC(=O)Nc1ccnn1CC` [Compound 116, 3-Oxo-nonanoic acid (2-ethyl-2H-pyrazol-3-yl)-amide] came in with a 50% inhibitory concentration (IC50) (Escherichia coli, 4 h) greater than 100 µM.

In turn, `CCCCCCCC(=O)NNC(=O)c1sccc1Br` [Compound 85, 3-Bromo-thiophene-2carboxylic acid N′-octanoyl-hydrazide] returned an IC50 (Escherichia coli, 4 h) of 1 to 50 µM.

Where the note is “Escherichia coli, 4 h”, `O=C(NNC(=O)c1sc2ccccc2c1Cl)c1ccco1` [Compound 41, Furan-2-carboxylic acid N′-(3-chloro-benzo[b]thiophene-2-carbonyl)-hydrazide] came in with an IC50 of 1 to 50 µM.

In turn, `CCCC(=O)NNC(=O)c1cccs1` [Compound 75, Thiophene-2-carboxylic acid N′-butyryl-hydrazide] displayed a 50% inhibitory concentration (IC50) (Escherichia coli, 4 h) of 1 to 50 µM.

`CCCCCCC(=O)NNC(=O)c1ccc(C)s1` [Compound 83, 5-Methyl-thiophene-2-carboxylic acid N′-heptanoyl-hydrazide]: the IC50 (Escherichia coli, 4 h) was 1 to 50 µM.

`Cc1csc(C(=O)NNC(=O)c2cccs2)c1Cl` [Compound 43, Thiophene-2-carboxylic acid N′-(3-chloro-4-methyl-thiophene-2-carbonyl)-hydrazide]: for the setting “Escherichia coli, 4 h”, the half-inhibitory concentration (IC50) lay in the range of 1 to 50 µM.

With `COC(=O)c1scc(C)c1NC(=O)c1cccs1` [Compound 5, 4-Methyl-3-[(thiophene-2-carbonyl)-amino]-thiophene-2-carboxylic acid methyl ester], where the note is “Escherichia coli, 4 h”, the half-maximal inhibitory concentration (IC50) is greater than 100 µM.

On to `O=C(NNC(=O)c1ccc(Br)s1)c1cccs1` [Compound 59, Thiophene-2-carboxylic acid N′-(5-bromo-thiophene-2-carbonyl)-hydrazide], for which, for the setting “Escherichia coli, 4 h”, the IC50 was in the range of 1 to 50 µM.

Regarding `CCCCCCC(=O)CC(=O)Nc1nc(SC)sc1C(C)=O` [Compound 129, 3-Oxo-nonanoic acid (5-acetyl-2-methylsulfanyl-thiazol-4-yl)-amide], for the setting “Escherichia coli, 4 h”, the IC50 was greater than 100 µM.

As to `CCCCCCCC(=O)NNC(=O)c1ccnc(Cl)c1` [Compound 93, 2-Chloro-isonicotinic acid N′-octanoyl-hydrazide], the half-maximal inhibitory concentration (IC50) (Escherichia coli, 4 h) lay within 1 to 50 µM.

`CCCCCCC(=O)CC(=O)Nc1ccon1` [Compound 130, 3-Oxo-nonanoic acid isoxazol-3-ylamide]: the half-inhibitory concentration (IC50) (Escherichia coli, 4 h) was greater than 100 µM.

In the case of `CCCC(=O)NNC(=O)c1ccc(Br)s1` [Compound 77, 5-Bromo-thiophene-2-carboxylic acid N′-butyryl-hydrazide], the concentration for half-maximal inhibition (IC50) (Escherichia coli, 4 h) is 1 to 50 µM.

As for `COc1ccc(NC(=O)NNC(=O)c2ccc(Br)s2)cc1` [Compound 109, 1-(5-Bromo-thiophene-2-carbonyl)-4-(4-methoxy-phenyl)-semicarbazide], for the setting “Escherichia coli, 4 h”, the IC50 was greater than 100 µM.

Compound `COc1ccc(NC(=O)c2cncc(Br)c2)cn1` [Compound 9, 5-Bromo-N-(6-methoxy-pyridin-3-yl)-nicotinamide] had a half-maximal inhibitory concentration (IC50) (Escherichia coli, 4 h) greater than 100 µM.

Regarding `Cn1nc(-c2ccccc2)cc1NC(=O)CCCCCBr` [Compound 18, 6-Bromo-hexanoic acid (2-methyl-5-phenyl-2H-pyrazol-3-yl)-amide], the IC50 (Escherichia coli, 4 h) lay in the range of 1 to 50 µM.
